From US20250100959A1, “METHOD FOR STORING REDUCED COENZYME Q10” (KANEKA CORPORATION, priority 2021, published 2025)

Assays:
[1] = Measurement of water activity (AquaLab Series 4TE); assay type: physicochemical; settings: for water activity in the packaged body: packaged body with controlled relative humidity; for water activity at 25° C.: composition or crystal as placed in the vial
Description: The water activity was measured with AquaLab Series 4TE (METER Group Inc.). A sample having a volume of about 5 ml in a sample dish was placed in AquaLab Series 4TE, and the water activity at 25° C., was measured.

[2] = Evaluation of oxidation stability: QH residual rate after storage, QH ratio by HPLC; assay type: physicochemical
Description: The weight ratio of reduced coenzyme Q10 to total coenzyme Q10 (namely, reduced coenzyme Q10/(oxidized coenzyme Q10+reduced coenzyme Q10)) is defined as “QH ratio”. The QH ratio was determined by the following HPLC analysis. For the evaluation of oxidation stability, a rate of the change in the QH ratio at the end of the evaluation from that at the beginning of the evaluation was defined as “QH residual rate”, and the QH residual rate determined by the following expression was used as a measure of oxidation stability.
QH residual rate (%)=100×QH ratio at the end of the evaluation/QH ratio at the beginning of the evaluation
Column: SYMMETRY C18 (manufactured by Waters); 250 mm (length), 4.6 mm (inner diameter)
Mobile phase: C2H5OH:CH3OH=4:3 (v:v)
Detection wavelength: 210 nm

[3] = packaged body with controlled internal relative humidity, stored at 40° C., 2 weeks
[4] = sealed aluminum laminate bag, packed at controlled relative humidity, stored at 25° C., 4 weeks

Row | QH residual rate (%) [2, 3] | Compound | water activity in the packaged body [1] | water activity at 25° C. [1] | QH residual rate (%) [2, 4] | also measured
1 | 82.6% | co-crystal composed of QH and nicotinamide [Comparative Example 3] | 0.48 | – | – | –
2 | – | COc1c(O)c(C)c(C/C=C(\C)CC/C=C(\C)CC/C=C(\C)CC/C=C(\C)CC/C=C(\C)CC/C=C(\C)CC/C=C(\C)CC/C=C(\C)CC/C=C(\C)CCC=C(C)C)c(O)c1OC [Comparative Example 2, reduced coenzyme Q10] | – | 0.13 | – | QH residual rate (%) ([2]; sealed glass vial, stored at 25° C., relative humidity 60%, 4 weeks): 33.3%
3 | – | COc1c(O)c(C)c(C/C=C(\C)CC/C=C(\C)CC/C=C(\C)CC/C=C(\C)CC/C=C(\C)CC/C=C(\C)CC/C=C(\C)CC/C=C(\C)CC/C=C(\C)CCC=C(C)C)c(O)c1OC [Comparative Example 1, reduced coenzyme Q10] | – | 0.17 | – | QH residual rate (%) ([2]; sealed glass vial, stored at 40° C., relative humidity 75%, 4 weeks): 87.5%
4 | – | COc1c(O)c(C)c(C/C=C(\C)CC/C=C(\C)CC/C=C(\C)CC/C=C(\C)CC/C=C(\C)CC/C=C(\C)CC/C=C(\C)CC/C=C(\C)CC/C=C(\C)CCC=C(C)C)c(O)c1OC [Example 3, reduced coenzyme Q10] | 0.50 | – | 92.3% | –
5 | 92.2% | co-crystal composed of QH and nicotinamide [Example 10] | 0.53 | – | – | –
6 | – | COc1c(O)c(C)c(C/C=C(\C)CC/C=C(\C)CC/C=C(\C)CC/C=C(\C)CC/C=C(\C)CC/C=C(\C)CC/C=C(\C)CC/C=C(\C)CC/C=C(\C)CCC=C(C)C)c(O)c1OC [Example 4, reduced coenzyme Q10] | 0.85 | – | 95.3% | –
